The source of these data is patent US10047080B2, “(R)-2-methyl-piperazine derivatives as CXCR3 receptor modulators” (Idorsia Pharmaceuticals Ltd., priority 2015, dated 2018).

The structures appear in SMILES notation.

Holding throughout (format): cell-based
Data set [1] concerns the target human CXCR3A (Homo sapiens (Human), UniProt P49682). Briefly: FLIPR assay (calcium flux, CXCL10-induced). Particulars: CHO-K1 cells expressing human CXCR3A coupled to Galpha(16); CXCL10 agonist at 20 nM. As to the method: The bioactivity of compounds is tested in a fluorometric imaging plate reader (FLIPR: Molecular Devices) using engineered CHO-K1 cells expressing the human CXCR3A (GenBank: AY242128) coupled to a G protein (Galpha(16)). Cells are plated the day prior to bioassay in F12 medium supplemented with 10% FBS and G418 and hygromycin antibiotics to maintain recombinant selection. At the day of bioassay, cells are washed and dye loaded for one hour with Fluo-4-AM (Invitrogen) in Hanks Balanced Salt Solution (Invitrogen), buffered with 20 mM Hepes at pH 7.4 and sodium bicarbonate (0.038%), containing 5 mM probenecid. This buffer, but lacking the dye and containing probenecid at a concentration of 2.5 mM, is also used for washing steps (wash buffer); or lacking both dye and probenecid but supplemented with 0.1% BSA for compound dilution steps (dilution buffer). Cells are washed free of excess dye and 60 microliter of wash buffer is added. Stock solutions of test compounds are made up at a concentration of 10 mM in DMSO, and serially diluted in dilution buffer to concentrations required for inhibition dose response curves. After a 10 minute incubation period at 37° C., 10 microliters of each compound dilution are transferred from a compound plate to the plate containing the recombinant cells in the FLIPR instrument according to the manufacturer's instructions. Following basal readings, 10 microliter CXCL10 agonist at a concentration of 20 nM (from Peprotech) is added, again using the FLIPR instrument. Changes in fluorescence are monitored before and after addition of the test compounds. Emission peak values above base level after CXCL10 addition are exported after base line subtraction.
(§1) The calculated IC50 values may fluctuate depending on the daily assay performance. Fluctuations of this kind are known to those skilled in the art. In the case where IC50 values have been determined several times for the same compound, mean values are given. Data for the FLIPR assay are shown in Table 1 and for the receptor internalization assay (RIA) in Table 2.
Background: Calcium flux is commonly read through the fluorescence of an indicator in the cells.

Data set [2] deals with CXCR3 (Homo sapiens (Human), UniProt P49682). Briefly: Receptor internalization assay (RIA) in human whole blood. Particulars: final CXCL10 9 nM, CXCR3 surface expression on CD4 positive cells. As for the experimental part:
Stock solutions of test compounds are made up at a concentration of 10 mM in DMSO, and serially diluted in PBS containing 0.5% BSA to concentrations required for inhibition dose response curves. Diluted compounds are then mixed with an equal volume of CXCL10 (Peprotech) diluted in PBS. Anticoagulated venous human whole blood is added to the mixture, which is then incubated in a CO2 incubator at 37° C. to allow for ligand mediated receptor internalization (final CXCL10 concentration is 9 nM). After 30 min, the blood is mixed with fluorescently labeled CXCR3 and CD4 specific antibodies (Becton Dickinson) and incubated on ice for 10 minutes. Samples are then mixed with BD FACS Lysing Solution (Becton Dickinson) in order to eliminate red blood cells. After washing the cells with PBS containing 0.5% BSA, the samples are then analyzed in a flow cytometer (FACS Canto II, Becton Dickinson). For data analysis using FACSDiva software (Becton Dickinson), the mean fluorescence corresponding to CXCR3 cell surface expression was determined on CD4 positive cells.
as §1

In data set [3] the target is hERG K channel (Homo sapiens (Human), UniProt Q12809). Briefly: hERG Q-Patch assay. To be noted: CHO cells expressing hERG, K+ tail current. As for the experimental part: Compounds are evaluated for block of the hERG K channel using CHO cells stably expressing the hERG gene (accession number U04270, bSys, Witterswil, Switzerland) and the QPatch robotic platform (Sophion, Ballerup, Denmark) in single-cell mode at room temperature. Cells are grown in culture flasks at 37° C. in 5% CO2, in culture medium (Ham's F-12 Nutrient Mixture, Invitrogen 21765-029) supplemented with 9% (v/v) fetal calf serum, 0.9% Penicillin/Streptomycin (10,000 U/mL, Invitrogen 15140148), 100 μg/mL Hygromycin B (Invitrogen 10687010). When the cells are ˜80% confluent (every 2-3 days), they are either split for further culture or used for electrophysiology. For further culture, cells are detached with 0.25% Trypsin EDTA solution (Invitrogen 25200-056) and a fraction of the cells (10-30%) is reseeded in culture medium. For electrophysiology, on the experimental day, cells are detached with 0.25% Trypsin EDTA solution and all cells are suspended in suspension medium (293 SFM II, Invitrogen 11686-029) supplemented with 20 mM HEPES and 0.04 mg/mL Trypsin inhibitor. Cells are kept in suspension medium at 32-35° C. in the QPatch robot until use, at which time aliquots are transferred to the extracellular solution (in mM: NaCl 150; KCl 4; CaCl2 1.2; MgCl2 1; HEPES 10; pH 7.4 with NaOH) containing 0.3% v/v DMSO and applied to the test plates. K+ currents are measured with the patch-voltage-clamp technique in the whole-cell configuration with the internal solution (in mM: KCl, 140; NaCl, 10; MgCl2, 1; HEPES, 10; EGTA, 5; pH=7.2 with KOH). Currents are low-pass filtered using the internal Bessel filter of the QPatch robot with a cut-off frequency of 2 kHz and are digitized at 10 kHz. K^+ tail currents are produced from a holding voltage of −80 mV by a 500-ms depolarization to +20 mV followed by a 500-ms repolarization to −40 mV; tail current amplitudes are measured at the end of the repolarization to −40 mV. The pulse pattern is repeated every 10 sec during the experiment, baseline K^+ current is measured after 3 min in extracellular solution, test-solution containing compound is then applied, and K^+ current in presence of compound is measured 3 minutes after application to the cells. The respective test-solution is prepared by (1) dissolving the test-compound in pure DMSO, (2) diluting this DMSO solution in extracellular solution, and (3) adding further DMSO, such that the final test-solution has a concentration of either 300 nM or 3000 nM of the test-compound and contains 0.3% v/v DMSO. Compound effects are quantified as % block by dividing the current in presence of compound by the baseline current; two or three experiments are performed for each compound and the final value represents the mean of the results of each experiment.
Chain of hERG K channel (Q12809 whole entry): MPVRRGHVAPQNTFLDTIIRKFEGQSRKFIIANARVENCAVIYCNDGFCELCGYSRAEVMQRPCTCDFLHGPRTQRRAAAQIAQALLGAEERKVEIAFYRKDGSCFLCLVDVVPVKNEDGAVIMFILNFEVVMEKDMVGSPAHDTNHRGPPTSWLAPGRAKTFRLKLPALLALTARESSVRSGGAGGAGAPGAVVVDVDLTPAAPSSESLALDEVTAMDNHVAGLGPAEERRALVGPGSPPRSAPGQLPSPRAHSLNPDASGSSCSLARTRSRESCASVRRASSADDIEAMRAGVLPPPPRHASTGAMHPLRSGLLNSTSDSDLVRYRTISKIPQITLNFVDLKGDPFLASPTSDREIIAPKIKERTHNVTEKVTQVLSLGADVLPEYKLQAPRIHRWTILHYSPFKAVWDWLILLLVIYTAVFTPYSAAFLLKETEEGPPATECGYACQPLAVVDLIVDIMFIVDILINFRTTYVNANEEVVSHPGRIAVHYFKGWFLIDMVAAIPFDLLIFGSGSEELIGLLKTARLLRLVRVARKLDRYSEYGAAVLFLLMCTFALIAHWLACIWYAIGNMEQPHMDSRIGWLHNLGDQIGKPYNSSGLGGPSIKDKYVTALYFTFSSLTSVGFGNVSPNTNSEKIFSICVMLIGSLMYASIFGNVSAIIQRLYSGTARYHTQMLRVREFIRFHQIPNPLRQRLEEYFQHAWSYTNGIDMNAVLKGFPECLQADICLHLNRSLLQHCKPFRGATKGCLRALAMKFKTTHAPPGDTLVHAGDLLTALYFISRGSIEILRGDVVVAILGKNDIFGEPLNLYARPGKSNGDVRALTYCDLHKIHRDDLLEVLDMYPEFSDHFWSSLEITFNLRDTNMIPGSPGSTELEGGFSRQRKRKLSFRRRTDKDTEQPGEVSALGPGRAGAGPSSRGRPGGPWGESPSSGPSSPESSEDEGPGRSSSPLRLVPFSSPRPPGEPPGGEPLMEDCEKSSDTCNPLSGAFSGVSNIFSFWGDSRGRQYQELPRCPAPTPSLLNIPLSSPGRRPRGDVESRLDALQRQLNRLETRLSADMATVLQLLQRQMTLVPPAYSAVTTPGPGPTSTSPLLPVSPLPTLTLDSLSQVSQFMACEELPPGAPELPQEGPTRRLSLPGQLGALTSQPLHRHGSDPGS
A general note: Block of hERG is tested as a sign of cardiac risk.

Chain of human CXCR3A (P49682 whole entry): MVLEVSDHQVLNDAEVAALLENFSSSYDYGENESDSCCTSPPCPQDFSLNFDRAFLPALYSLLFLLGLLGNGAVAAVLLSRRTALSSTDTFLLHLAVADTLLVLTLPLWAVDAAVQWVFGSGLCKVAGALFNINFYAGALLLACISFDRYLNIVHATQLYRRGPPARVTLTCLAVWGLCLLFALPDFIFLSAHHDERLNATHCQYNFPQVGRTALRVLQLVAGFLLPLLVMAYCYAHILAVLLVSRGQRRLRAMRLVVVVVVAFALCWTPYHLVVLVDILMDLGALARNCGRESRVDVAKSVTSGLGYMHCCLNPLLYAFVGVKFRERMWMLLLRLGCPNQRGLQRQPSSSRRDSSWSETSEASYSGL
Chain of CXCR3 (P49682 whole entry): as above

As to `COCc1ncn(CC(=O)N2CCN(c3sc(C(F)(F)F)nc3-c3cnc(C(F)(F)F)nc3)C[C@H]2C)n1` [Example 9, 2-(3-Methoxymethyl-[1,2,4]triazol-1-yl)-1-{(R)-2-methyl-4-[2-trifluoromethyl-4-(2-trifluoromethyl-pyrimidin-5-yl)-thiazol-5-yl]-piperazin-1-yl}-ethanone], the IC50 (commonly the concentration at which inhibition is half-maximal) came out at 2.7 nM in data set [1] and 606 nM in data set [2]. Moreover, the entries for the “% block” value in data set [3] (concentration 300 nM) and in data set [3] (concentration 3000 nM) were 2% and 11%, respectively.

With `CC(O)c1ncn(CC(=O)N2CCN(c3sc(C(F)(F)F)nc3-c3cnc(C(F)(F)F)nc3)C[C@H]2C)n1` (stereo partly drawn) [Example 12, 2-[3-(1-Hydroxy-ethyl)-[1,2,4]triazol-1-yl]-1-{(R)-2-methyl-4-[2-trifluoromethyl-4-(2-trifluoromethyl-pyrimidin-5-yl)-thiazol-5-yl]-piperazin-1-yl}-ethanone], the IC50 in data set [1] was found to be 0.9 nM; in data set [2], 564 nM. For the same compound, the “% block” value was determined as 0% in data set [3] (concentration 300 nM) and 4% in data set [3] (concentration 3000 nM).

Regarding `CC(C)c1ncn(CC(=O)N2CCN(c3sc(C(F)(F)F)nc3-c3cnc(C4CC4)nc3)C[C@H]2C)n1` [Example 16, 1-{(R)-4-[4-(2-Cyclopropyl-pyrimidin-5-yl)-2-trifluoromethyl-thiazol-5-yl]-2-methyl-piperazin-1-yl}-2-(3-isopropyl-[1,2,4]triazol-1-yl)-ethanone], the IC50 in data set [1] worked out at 0.7 nM; in data set [2] it was 524 nM. The figures for the “% block” value in data set [3] (concentration 300 nM) and in data set [3] (concentration 3000 nM) were 1% and 25%, respectively.

In the case of `C[C@@H]1CN(c2sc(C(F)(F)F)nc2-c2cnc(C(F)(F)F)nc2)CCN1C(=O)Cn1cnc(C(N)=O)n1` [Example 5, 1-(2-{(R)-2-Methyl-4-[2-trifluoromethyl-4-(2-trifluoromethyl-pyrimidin-5-yl)-thiazol-5-yl]-piperazin-1-yl}-2-oxo-ethyl)-1H-[1,2,4]triazole-3-carboxylic acid amide], the IC50 in data set [1] is 12 nM; in data set [2], 1710 nM. Also, the “% block” value in data set [3] (concentration 300 nM) amounted to 1%; in data set [3] (concentration 3000 nM), 5%.

Consider `CCOc1ncc(-c2nc(C(F)(F)F)sc2N2CCN(C(=O)Cn3cnc(COC)n3)[C@H](C)C2)cn1` [Example 4, 1-{(R)-4-[4-(2-Ethoxy-pyrimidin-5-yl)-2-trifluoromethyl-thiazol-5-yl]-2-methyl-piperazin-1-yl}-2-(3-methoxymethyl-[1,2,4]triazol-1-yl)-ethanone], for which the IC50 in data set [1] turned out to be 13 nM; in data set [2], 950 nM. Also, the results for the “% block” value in data set [3] (concentration 300 nM) and in data set [3] (concentration 3000 nM) were 5% and 10%, respectively.

`CCc1ncn(CC(=O)N2CCN(c3sc(C(F)(F)F)nc3-c3cnc(C(F)(F)F)nc3)C[C@H]2C)n1` [Example 6, 2-(3-Ethyl-[1,2,4]triazol-1-yl)-1-{(R)-2-methyl-4-[2-trifluoromethyl-4-(2-trifluoromethyl-pyrimidin-5-yl)-thiazol-5-yl]-piperazin-1-yl}-ethanone]: the IC50 was 2 nM in data set [1] and 148 nM in data set [2]. Besides, the “% block” value in data set [3] (concentration 300 nM) was 5%; in data set [3] (concentration 3000 nM), 22%.

With `CCOc1ncc(-c2nc(C(F)(F)F)sc2N2CCN(C(=O)Cn3cnc(C)n3)[C@H](C)C2)cn1` [Example 19, 1-{(R)-4-[4-(2-Ethoxy-pyrimidin-5-yl)-2-trifluoromethyl-thiazol-5-yl]-2-methyl-piperazin-1-yl}-2-(3-methyl-[1,2,4]triazol-1-yl)-ethanone], the IC50 was 1.8 nM in data set [1] and 211 nM in data set [2]. In addition, the “% block” value in data set [3] (concentration 300 nM) is 9%; in data set [3] (concentration 3000 nM), 14%.

Take `CC(C)c1ncn(CC(=O)N2CCN(c3sc(C(F)(F)F)nc3-c3cnc(OC4CCC4)nc3)C[C@H]2C)n1` [Example 14, 1-{(R)-4-[4-(2-Cyclobutoxy-pyrimidin-5-yl)-2-trifluoromethyl-thiazol-5-yl]-2-methyl-piperazin-1-yl}-2-(3-isopropyl-[1,2,4]triazol-1-yl)-ethanone]: the 50% inhibitory concentration (IC50) in data set [1] turned out to be 1.2 nM; in data set [2], 459 nM. For the same compound, the “% block” value amounted to 4% in data set [3] (concentration 300 nM) and 27% in data set [3] (concentration 3000 nM).

Consider `Cc1ncn(CC(=O)N2CCN(c3sc(C(F)(F)F)nc3-c3cnc(C(F)(F)F)nc3)C[C@H]2C)n1` [Example 20, 2-(3-Methyl-[1,2,4]triazol-1-yl)-1-{(R)-2-methyl-4-[2-trifluoromethyl-4-(2-trifluoromethyl-pyrimidin-5-yl)-thiazol-5-yl]-piperazin-1-yl}-ethanone], for which the concentration for half-maximal inhibition (IC50) in data set [1] came out at 1.6 nM; in data set [2], 189 nM. In addition, the “% block” value in data set [3] (concentration 300 nM) is 2%; in data set [3] (concentration 3000 nM), 18%.
